Measured values as given in article PMC11364104, “Discovery of SARS-CoV-2 papain-like protease (PL^pro) inhibitors with efficacy in a murine infection model” (Science Advances, 2024).
Where two headings read alike, the source gives them in different places.

Tests used:
P38 MAP Kinase = target: T1, P38 MAP Kinase (Homo sapiens, UniProt Q16539); assay: CEREP kinase inhibition; type: biochemical
T1 construct: purchased Eurofins Cerep

Human Chymotrypsin = type: biochemical
PDE3B = target: T2, PDE3B (Homo sapiens, UniProt Q13370); assay: CEREP enzyme inhibition; type: biochemical
T2 construct: purchased Eurofins Cerep
T2 sequence (Q13370 whole entry): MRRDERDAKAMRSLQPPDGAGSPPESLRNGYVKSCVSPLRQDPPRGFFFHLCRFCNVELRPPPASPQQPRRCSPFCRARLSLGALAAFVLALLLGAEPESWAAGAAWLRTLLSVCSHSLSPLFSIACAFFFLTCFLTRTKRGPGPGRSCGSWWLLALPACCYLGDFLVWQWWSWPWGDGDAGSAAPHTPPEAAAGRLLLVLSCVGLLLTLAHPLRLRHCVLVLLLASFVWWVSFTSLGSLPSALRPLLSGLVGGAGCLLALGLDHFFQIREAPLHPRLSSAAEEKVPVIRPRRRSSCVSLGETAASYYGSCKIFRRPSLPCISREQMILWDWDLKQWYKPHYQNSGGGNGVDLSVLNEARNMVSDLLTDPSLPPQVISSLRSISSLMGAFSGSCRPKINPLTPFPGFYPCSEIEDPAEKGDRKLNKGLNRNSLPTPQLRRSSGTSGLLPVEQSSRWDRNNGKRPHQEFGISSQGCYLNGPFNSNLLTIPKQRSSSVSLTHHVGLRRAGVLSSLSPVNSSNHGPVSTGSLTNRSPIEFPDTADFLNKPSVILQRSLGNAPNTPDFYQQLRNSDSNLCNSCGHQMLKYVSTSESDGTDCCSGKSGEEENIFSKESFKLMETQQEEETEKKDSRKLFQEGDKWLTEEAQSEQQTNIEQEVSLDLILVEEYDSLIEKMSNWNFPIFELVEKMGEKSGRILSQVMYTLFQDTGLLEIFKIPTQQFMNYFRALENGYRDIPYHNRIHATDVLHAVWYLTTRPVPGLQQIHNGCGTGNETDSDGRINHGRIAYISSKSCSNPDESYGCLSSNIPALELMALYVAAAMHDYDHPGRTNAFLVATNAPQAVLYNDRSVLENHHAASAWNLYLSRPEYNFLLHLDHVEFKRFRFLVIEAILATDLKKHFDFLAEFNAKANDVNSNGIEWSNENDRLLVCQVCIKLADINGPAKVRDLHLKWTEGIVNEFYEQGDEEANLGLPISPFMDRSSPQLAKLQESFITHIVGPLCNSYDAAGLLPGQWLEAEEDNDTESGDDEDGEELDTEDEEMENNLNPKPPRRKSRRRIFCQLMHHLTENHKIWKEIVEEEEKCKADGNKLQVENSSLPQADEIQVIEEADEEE

CYP1A2 = CYP1A2 (Homo sapiens, UniProt P05177); assay: biochemical
CYP1A2, sequence (P05177 whole entry): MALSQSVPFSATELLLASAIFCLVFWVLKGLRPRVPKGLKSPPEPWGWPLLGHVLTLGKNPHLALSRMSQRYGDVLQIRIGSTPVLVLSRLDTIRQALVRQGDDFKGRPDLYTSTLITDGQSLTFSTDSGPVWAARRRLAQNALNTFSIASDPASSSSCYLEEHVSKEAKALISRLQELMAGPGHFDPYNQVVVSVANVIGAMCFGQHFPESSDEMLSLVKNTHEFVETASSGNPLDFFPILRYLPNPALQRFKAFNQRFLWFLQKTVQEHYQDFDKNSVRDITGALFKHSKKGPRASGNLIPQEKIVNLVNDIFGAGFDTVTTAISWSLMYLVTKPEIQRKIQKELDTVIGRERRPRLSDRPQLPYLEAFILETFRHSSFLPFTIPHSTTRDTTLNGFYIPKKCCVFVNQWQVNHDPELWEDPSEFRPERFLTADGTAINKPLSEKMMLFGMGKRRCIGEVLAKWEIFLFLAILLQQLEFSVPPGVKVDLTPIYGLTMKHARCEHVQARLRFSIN

Human Cathepsin S = target: T3, Human Cathepsin S (Homo sapiens, UniProt P25774); assay: biochemical
T3 construct: assay run at Reaction Biology Corporation
T3 sequence (P25774 115-331): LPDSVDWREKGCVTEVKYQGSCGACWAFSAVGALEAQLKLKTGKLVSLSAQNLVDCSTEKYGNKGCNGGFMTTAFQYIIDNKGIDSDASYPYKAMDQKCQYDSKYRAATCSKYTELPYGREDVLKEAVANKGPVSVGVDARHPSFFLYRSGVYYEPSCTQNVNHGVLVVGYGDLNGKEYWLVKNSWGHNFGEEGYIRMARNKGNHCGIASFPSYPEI

Human Cathepsin V = target: T4, Human Cathepsin V (Homo sapiens, UniProt O60911); assay: biochemical
T4 construct: assay run at Reaction Biology Corporation
T4 sequence (O60911 114-334): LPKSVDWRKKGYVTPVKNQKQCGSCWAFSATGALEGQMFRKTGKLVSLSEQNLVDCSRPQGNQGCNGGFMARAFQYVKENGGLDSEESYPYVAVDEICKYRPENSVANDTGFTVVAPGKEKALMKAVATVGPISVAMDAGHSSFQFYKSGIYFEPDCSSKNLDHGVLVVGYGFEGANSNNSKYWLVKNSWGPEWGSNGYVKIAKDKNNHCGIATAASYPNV

[1] = target: T5, Norepinephrine Transporter (Homo sapiens, UniProt P23975); assay: CEREP transporters-binding
T5 construct: purchased Eurofins Cerep
T5 sequence (P23975 whole entry): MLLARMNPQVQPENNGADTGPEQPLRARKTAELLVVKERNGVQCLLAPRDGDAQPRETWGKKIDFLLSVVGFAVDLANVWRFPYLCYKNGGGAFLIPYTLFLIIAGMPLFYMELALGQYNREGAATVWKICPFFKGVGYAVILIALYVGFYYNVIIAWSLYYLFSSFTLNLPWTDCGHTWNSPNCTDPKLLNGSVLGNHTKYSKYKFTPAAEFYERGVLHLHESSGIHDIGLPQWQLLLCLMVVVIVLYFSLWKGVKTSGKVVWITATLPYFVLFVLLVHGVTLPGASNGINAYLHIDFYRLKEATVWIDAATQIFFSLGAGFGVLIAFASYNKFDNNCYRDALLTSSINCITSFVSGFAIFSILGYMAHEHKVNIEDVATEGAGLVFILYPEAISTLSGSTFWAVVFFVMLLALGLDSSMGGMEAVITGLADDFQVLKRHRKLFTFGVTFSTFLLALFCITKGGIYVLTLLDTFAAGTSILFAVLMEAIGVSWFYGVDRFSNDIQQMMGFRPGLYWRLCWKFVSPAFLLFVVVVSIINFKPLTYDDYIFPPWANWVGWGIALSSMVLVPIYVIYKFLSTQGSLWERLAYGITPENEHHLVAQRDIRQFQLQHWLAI

hCoV-229E_PLpro2 = hCoV-229E_PLpro2 (Human coronavirus 229E, UniProt P0C6X1); assay: biochemical; design: species or system 229E-CoV
hCoV-229E_PLpro2, sequence (P0C6X1 1663-1914): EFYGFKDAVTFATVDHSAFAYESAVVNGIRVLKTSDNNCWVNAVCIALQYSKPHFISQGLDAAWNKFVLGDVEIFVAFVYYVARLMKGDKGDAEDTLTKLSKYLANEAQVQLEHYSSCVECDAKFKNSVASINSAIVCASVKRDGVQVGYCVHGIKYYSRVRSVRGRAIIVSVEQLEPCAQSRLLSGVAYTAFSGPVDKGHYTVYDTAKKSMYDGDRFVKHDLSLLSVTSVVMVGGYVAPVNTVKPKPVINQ

MERS_Plpro = MERS_Plpro (Middle East respiratory syndrome-related coronavirus, UniProt K9N7C7); assay: biochemical; design: species or system MERS-CoV
MERS_Plpro, sequence (K9N7C7 1552-1823 limits assumed): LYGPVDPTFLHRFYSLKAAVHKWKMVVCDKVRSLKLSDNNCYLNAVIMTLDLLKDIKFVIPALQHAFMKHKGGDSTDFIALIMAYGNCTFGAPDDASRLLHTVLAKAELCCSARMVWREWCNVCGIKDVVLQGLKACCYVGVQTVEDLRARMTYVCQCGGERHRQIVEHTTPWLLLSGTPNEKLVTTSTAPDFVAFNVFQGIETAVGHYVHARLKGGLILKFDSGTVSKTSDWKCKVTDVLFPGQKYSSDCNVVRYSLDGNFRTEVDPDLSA

in vitro [2] = conditions: African green monkey, Mean CC50, n=3
in vitro [3] = conditions: male, cynomolgus monkey, plasma
[4] = target: Human Immunodeficiency Virus-1 protease (Human immunodeficiency virus type 1 group M subtype B, UniProt P04585); assay: biochemical
Human Cathepsin L = target: T6, Human Cathepsin L (Homo sapiens, UniProt P07711); assay: biochemical
T6 construct: assay run at Reaction Biology Corporation
T6 sequence (P07711 114-333): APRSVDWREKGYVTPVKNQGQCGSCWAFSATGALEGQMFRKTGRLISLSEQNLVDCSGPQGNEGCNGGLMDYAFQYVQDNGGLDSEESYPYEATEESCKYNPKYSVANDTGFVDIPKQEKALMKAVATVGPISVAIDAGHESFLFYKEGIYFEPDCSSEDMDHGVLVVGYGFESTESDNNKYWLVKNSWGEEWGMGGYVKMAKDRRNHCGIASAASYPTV

Dopamine Transporter = target: T7, Dopamine Transporter (Homo sapiens, UniProt Q01959); assay: CEREP transporters-binding
T7 construct: purchased Eurofins Cerep
T7 sequence (Q01959 whole entry): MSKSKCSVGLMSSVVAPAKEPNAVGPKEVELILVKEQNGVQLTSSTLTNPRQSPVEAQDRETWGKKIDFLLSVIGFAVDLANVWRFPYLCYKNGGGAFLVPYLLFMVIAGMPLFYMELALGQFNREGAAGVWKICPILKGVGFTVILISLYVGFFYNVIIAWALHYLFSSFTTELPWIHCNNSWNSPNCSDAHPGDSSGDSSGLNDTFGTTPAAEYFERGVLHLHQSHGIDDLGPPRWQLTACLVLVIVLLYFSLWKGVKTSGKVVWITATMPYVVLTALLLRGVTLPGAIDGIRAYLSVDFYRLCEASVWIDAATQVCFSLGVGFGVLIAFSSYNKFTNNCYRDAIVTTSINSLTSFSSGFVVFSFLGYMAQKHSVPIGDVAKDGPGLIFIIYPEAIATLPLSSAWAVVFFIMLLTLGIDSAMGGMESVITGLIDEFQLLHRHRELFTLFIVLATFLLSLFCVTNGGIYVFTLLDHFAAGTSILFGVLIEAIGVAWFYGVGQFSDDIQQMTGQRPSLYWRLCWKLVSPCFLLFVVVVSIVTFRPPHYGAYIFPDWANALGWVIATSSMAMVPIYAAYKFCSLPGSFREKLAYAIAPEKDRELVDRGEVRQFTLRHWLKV

in vitro [5] = conditions: male, Wistar-Hannover, rat, plasma
LogD = type: physicochemical
Dog pharmacokinetics = type: in vivo, Beagle dog; conditions: for Vd: read-out: Vdss
Description: from Vital River (Beijing, China) and were typically 7-9 weeks of age at the time of dosing.
During the pharmacokinetic studies all animals were housed individually. Access to food and water was provided ad libitum (i.e., subjects were dosed in the fed state). In the instances where oral (po) dose was administered in the fed state, with ad libitum access to food and water. Compounds were administered intravenously (iv) via the tail vein (n = 2) dosed as a solution (1 mg/kg, 3 ml/kg) or via oral gavage as a solution (10 mg/kg, 10 ml/kg). Dosing solutions were prepared immediately before dosing. The composition of each dosing vehicle […]
Serial blood samples were collected via the jugular vein cannula at predetermined timepoints after dosing. Animals were monitored for pain or distress throughout the study, with at least daily monitoring during normal husbandry prior to study start. At the completion of the study, animals were euthanized by overdose of inhaled carbon dioxide. Blood samples were collected into tubes containing K2EDTA and stored on ice until centrifugation to obtain plasma, which was stored frozen at - 20 °C or lower.
Dog pharmacokinetic studies were done at Pfizer (Groton, CT). All procedures performed on beagle dogs were in accordance with regulations and established guidelines and were reviewed and approved by an Institutional Animal Care and Use Committee through an ethical review process. Male Beagle dogs were purchased from Marshall Bioresources (North Rose, NY); subjects 3 years of age were used in pharmacokinetics studies. For each study (n=2), compounds were dosed iv by cephalic vein as a solution (0.5 mg/kg, 1 mL/kg) or via oral gavage as a suspension (3 mg/kg, 5 mL/kg). In the instances where oral (po) dose was administered in the fed state, dogs were fed a couple hours before dosing. In the instances where the IV dose was administered in the fasted state, dogs were fasted over night and fed 4 hours post dose. Subjects were monitored for pain or distress throughout the study followed by at least daily monitoring while off study. The iv dosing vehicle was optimized such that the compounds were in solution and stable for at least 24 h. Serial blood samples were collected via the jugular vein at predefined time points post-dose. Blood samples were collected into K3EDTA treated collection tubes and were stored on wet ice prior to being centrifuged to obtain plasma, which was stored frozen at - 20 °C or lower.
Monkey pharmacokinetic studies were conducted at Pfizer (Groton, CT). All procedures performed on Cynomolgus monkeys were in accordance with regulations and established guidelines and were reviewed and approved by an Institutional Animal Care and Use Committee through an ethical review process. Male Cynomolgus monkeys were purchased from Envigo Global Services (Indianapolis, IN); subjects 5-8 years of age were used in pharmacokinetic studies. For each study (n=2), compounds were dosed iv by the cephalic vein (typically 1 mg/kg, 2 ml/kg). Subjects were monitored for pain or distress throughout the study followed by at least daily monitoring while off study. The iv dosing vehicle was optimized such that the compounds were in solution and stable for at least 24 h.
Serial blood samples were collected via the femoral vein at predefined time points post-dose. Blood samples were collected into K3EDTA treated collection tubes and were stored on wet ice prior to being centrifuged to obtain plasma, which was stored frozen at -20 °C or […]
LC-MS/MS Analysis of Plasma Samples
Plasma samples were processed using protein precipitation with 50:50 acetonitrile: methanol containing terfenadine (5 ng/ml) as an internal standard followed by quantitation against a standard curve (0.1-1000 ng/ml) prepared in blank plasma. Quantitation of analyte in plasma samples was done using LC-MS/MS. Standard and quality control samples, prepared in blank plasma were extracted in the same manner as the in-life samples. Briefly, a Waters […]

CYP2D6 = CYP2D6 (Homo sapiens, UniProt P10635); assay: biochemical
CYP2D6, sequence (P10635 whole entry): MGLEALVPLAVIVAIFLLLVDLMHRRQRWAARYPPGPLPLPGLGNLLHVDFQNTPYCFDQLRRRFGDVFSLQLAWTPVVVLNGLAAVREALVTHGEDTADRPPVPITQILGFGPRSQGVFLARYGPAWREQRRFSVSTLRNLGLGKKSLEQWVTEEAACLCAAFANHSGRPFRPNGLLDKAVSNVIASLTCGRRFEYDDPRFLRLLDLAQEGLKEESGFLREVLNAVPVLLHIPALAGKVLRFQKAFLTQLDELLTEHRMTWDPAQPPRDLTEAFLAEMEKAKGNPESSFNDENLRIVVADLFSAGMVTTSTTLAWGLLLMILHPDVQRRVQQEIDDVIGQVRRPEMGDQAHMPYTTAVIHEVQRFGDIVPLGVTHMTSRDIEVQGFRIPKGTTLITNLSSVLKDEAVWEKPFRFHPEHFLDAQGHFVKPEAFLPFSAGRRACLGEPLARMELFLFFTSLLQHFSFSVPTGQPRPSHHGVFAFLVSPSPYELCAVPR

L-Type Ca (Nifedipine) = assay: CEREP ion channel-binding; conditions: 30 µM
NMDA Receptor = assay: CEREP ion channel-binding; conditions: 30 µM
Human Cathepsin B = target: T8, Human Cathepsin B (Homo sapiens, UniProt P07858); assay: biochemical
T8 construct: assay run at Reaction Biology Corporation

[6] = plasma, Male Beagle Dog, 0.5 mg/kg iv, solution, mean n=2
[7] = plasma, Male Beagle Dog, 3.0 mg/kg po, suspension, mean n=2

T1 sequence (Q16539 whole entry): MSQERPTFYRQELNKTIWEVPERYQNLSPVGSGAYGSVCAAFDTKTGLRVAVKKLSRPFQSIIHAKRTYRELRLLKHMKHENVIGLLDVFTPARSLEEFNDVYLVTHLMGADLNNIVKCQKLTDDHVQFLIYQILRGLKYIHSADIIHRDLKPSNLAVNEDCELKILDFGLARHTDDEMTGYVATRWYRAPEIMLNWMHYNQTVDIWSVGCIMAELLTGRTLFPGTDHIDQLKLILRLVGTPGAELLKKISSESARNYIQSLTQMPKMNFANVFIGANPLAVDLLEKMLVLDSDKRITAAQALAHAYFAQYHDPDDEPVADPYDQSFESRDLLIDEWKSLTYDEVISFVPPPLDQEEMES

SMILES: Cc1ccc(N2CCN(C)CC2)cc1C(=O)NC1(c2cc(-c3cnn(C)c3)nc3ccccc23)CC1 [Compound 4]
- inhibition at 30 µM (P38 MAP Kinase): 10%
- IC50 (Human Chymotrypsin): > 100 µM
- inhibition at 30 µM (PDE3B): 4%
- IC50 (CYP1A2): 72.2 µM
- IC50 (Human Cathepsin S): > 100 µM
- IC50 (Human Cathepsin V): > 100 µM
- inhibition at 30 µM [1]: -6%
- Ki (hCoV-229E_PLpro2): > 10 µM
- activity on 229E PL^pro (hCoV-229E_PLpro2): nearly inactive
- Ki (MERS_Plpro): > 10 µM
- activity on MERS PL^pro (MERS_Plpro): nearly inactive
- CC50 (in vitro [2]): 69.3 µM
- fraction unbound (in vitro [3]): 0.101
- IC50 [4]: > 100 µM
- IC50 (Human Cathepsin L): > 100 µM
- inhibition at 30 µM (Dopamine Transporter): 8%
- fraction unbound (in vitro [5]): 0.241
- logD (LogD): 2.5
- Oral F (Dog pharmacokinetics; Male Beagle Dog, 3.0 mg/kg po, suspension, mean n=2): 41.0%
- Vd (Dog pharmacokinetics; male, Beagle, plasma, 0.5 mg/kg, dog (d), intravenous): 1.59 L/kg
- bioavailability (Dog pharmacokinetics; male, Beagle, plasma, po, 3 mg/kg, dog (d), read-out: Oral F (%)): 41%
- AUC(0-inf) (Dog pharmacokinetics; [6]): 640 ng·h/mL
- half-life (Dog pharmacokinetics; [6]): 2.06 h
- clearance (Dog pharmacokinetics; plasma, Male Beagle Dog, 0.5 mg/kg iv, solution, mean n=2, read-out: CLp): 13.4 mL/min/kg
- Vd (Dog pharmacokinetics; [6]): 1.59 L/kg
- AUC(0-inf) (Dog pharmacokinetics; [7]): 1580 ng·h/mL
- Cmax (Dog pharmacokinetics; [7]): 354 ng/mL
- Tmax (Dog pharmacokinetics; [7]): 1 h
- half-life (Dog pharmacokinetics; [7]): 2.52 h
- IC50 (CYP2D6): > 30 µM
- % inhibition (L-Type Ca (Nifedipine)): -6%
- % inhibition (NMDA Receptor): -2%
- IC50 (Human Cathepsin B): > 100 µM
